Where two headings read alike, the source gives them in different places. Marks after values point to notes of the source that are not given here.
Experiments:
[1] = molecular target: T1, turkey β4C-adrenoceptor (tβ4C) (Meleagris gallopavo, UniProt P43141); experiment: cell-based; format: binding
T1 construct: expressed in transfected cells

[2] = molecular target: Human β1-adrenoceptor; design: method as in PMID 15655528, PMID 20590599; conditions: Human β1, given for comparison; ref 25 and 30; cited from earlier work
[3] = molecular target: Human β3-adrenoceptor; conditions: cited from earlier work
[4] = molecular target: T2, turkey β3C-adrenoceptor (tβ3C) (Meleagris gallopavo, UniProt A0A803YLI8); experiment: 3H-CGP12177 whole cell binding, CHO tβ3C cells
[5] = molecular target: T1, turkey β4C-adrenoceptor (tβ4C); experiment: cell-based; format: cell-based; conditions: for % isop max: CRE-SPAP, % of 10 µM isoprenaline maximum
[6] = molecular target: T2, turkey β3C-adrenoceptor (tβ3C); experiment: CRE-SPAP production, CHO tβ3C cells; format: cell-based; conditions: for Emax: read-out: % isop max; for % isop max: CRE-SPAP, % of 10 µM isoprenaline maximum
[7] = molecular target: Human β2-adrenoceptor; design: method as in PMID 15655528, PMID 20590599; conditions: Human β2, given for comparison; ref 25 and 30; cited from earlier work
[8] = molecular target: T1, turkey β4C-adrenoceptor (tβ4C); experiment: 3H-cAMP accumulation, CHO tβ4C cells; format: cell-based; conditions: for % isop max: 3H-cAMP, overall response as % of 10 µM isoprenaline; for % site 1: % of response occurring via site 1, tβ4C
[9] = molecular target: T2, turkey β3C-adrenoceptor (tβ3C); experiment: cell-based
[10] = molecular target: T2, turkey β3C-adrenoceptor (tβ3C)
[11] = system: parent CHO cells; experiment: 3H-CGP12177 binding, parent CHO cells; conditions: parent CHO cells without transfected receptor
Experimental: Cells were grown to confluence in white-sided tissue culture treated 96-well view plates. ^3H-CGP12177 whole cell binding was performed as previously described. […] For competition binding, the media was removed from each well, 100 µl of serum-free media containing the competing ligand at twice the final required concentration was added to each well followed immediately by a 100 µl of a fixed concentration of ^3H-CGP12177 (1∶2 dilution in well, final well concentrations of 1.24 nM to 12.10 nM). The cells were incubated for 2 hours at 37°C, 5% CO2 humidified atmosphere. For all plates, the cells were washed twice by the addition and removal of 200 µl 4°C phosphate buffered saline. 100 µl Microscint 20 was added to each well, a white sticky base applied to the underside and a sealant top applied to the top of the plate. The plates were left at room temperature overnight in the dark and the plates counted on a Topcount at 21°C for 2 minutes per well.

[12] = system: parent CHO cells; experiment: 3H-cAMP accumulation, parent CHO cells; conditions: parent CHO cells without transfected receptor
[13] = system: parent CHO CRE-SPAP cells; experiment: agonist response in parent CHO CRE-SPAP cells; format: cell-based
From the text: The second piece of pharmacological evidence for more than one conformation is the concentrations of antagonists required to inhibit the CGP12177-stimulatory response. […] This is similar to observations at the β1-adrenoceptor in rodents and mammals [6]–[7] [9] [11]. […] There was no response to any ligands, including CGP12177 in the parent CHO CRE-SPAP cells and thus the CGP12177 agonist response was not occurring at a different receptor natively expressed in the cells.

[14] = competition with 3H-CGP12177, whole cells, CHO tβ4C, given as log KD, mean ± s.e.m., read-out: Log KD (converted)
[15] = Human β3, given for comparison, ref 25 and 30
[16] = competition with 3H-CGP12177, whole cells, CHO tβ3C, given as log KD, mean ± s.e.m., read-out: Log KD (converted)
[17] = CRE-SPAP production, CHO tβ4C cells, read-out: Log EC50 (converted)
[18] = CRE-SPAP production, CHO tβ3C cells, read-out: Log EC50 (converted)
[19] = competition with 3H-CGP12177, whole cells, CHO tβ4C, given as log KD, mean ± s.e.m.
[20] = competition with 3H-CGP12177, whole cells, CHO tβ3C, given as log KD, mean ± s.e.m.

T2 sequence (A0A803YLI8 entry or part of it): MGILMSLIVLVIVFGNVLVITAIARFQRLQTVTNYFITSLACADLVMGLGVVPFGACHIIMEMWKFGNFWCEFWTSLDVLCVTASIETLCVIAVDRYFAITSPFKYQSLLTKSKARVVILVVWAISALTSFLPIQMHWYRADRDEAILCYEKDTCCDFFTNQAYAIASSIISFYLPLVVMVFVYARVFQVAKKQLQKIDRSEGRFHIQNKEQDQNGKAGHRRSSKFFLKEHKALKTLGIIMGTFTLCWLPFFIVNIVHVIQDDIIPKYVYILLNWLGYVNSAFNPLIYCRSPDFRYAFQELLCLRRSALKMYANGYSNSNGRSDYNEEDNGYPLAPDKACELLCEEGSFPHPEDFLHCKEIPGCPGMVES
T1 sequence (P43141 whole entry): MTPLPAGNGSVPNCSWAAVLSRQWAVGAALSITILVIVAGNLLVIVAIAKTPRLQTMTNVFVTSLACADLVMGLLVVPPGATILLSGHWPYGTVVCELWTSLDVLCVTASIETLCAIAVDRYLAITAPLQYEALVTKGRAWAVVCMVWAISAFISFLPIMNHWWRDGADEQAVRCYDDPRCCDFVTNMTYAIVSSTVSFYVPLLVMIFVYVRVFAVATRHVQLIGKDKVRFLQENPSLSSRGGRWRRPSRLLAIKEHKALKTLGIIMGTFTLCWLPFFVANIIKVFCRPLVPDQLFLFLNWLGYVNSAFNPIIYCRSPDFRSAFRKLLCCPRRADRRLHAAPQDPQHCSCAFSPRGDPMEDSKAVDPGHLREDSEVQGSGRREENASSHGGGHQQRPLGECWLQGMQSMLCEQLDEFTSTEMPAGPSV

Molecule | Kd [1, 14] [nM] | Log KD [2] | Log KD [3, 15] | % isop max ([5]; CHO tβ4C cells) [%] | Log KD [7] | Kd [4] [nM] | other results
Cc1ccc(Cl)c(OCC(O)CNC(C)(C)C)c1 (stereo not shown) [Bupranolol] | 6.61 | −8.51 | −7.04 | – | – | – | Kd [4, 16]: 0.851 nM
CNC[C@H](O)c1ccc(O)c(O)c1 [Adrenaline] | 1700 | −5.15 | −4.70 | 99.6±2.7 | −6.13 | 1550 | EC50 [5, 17]: 191 nM; EC50 [6]: 63.1 nM; Emax [6]: 106 ± 2.7%
CC(C)(C)NCC(O)COc1cccc2c1CC(O)C(O)C2 (stereo not shown) [Nadolol] | 18.2 | −7.23 | −6.18 | – | −8.60 | – | Kd [4, 16]: 11.2 nM
CC(C)(C)NCC(O)c1ccc(O)c(CO)c1 (stereo not shown) [Salbutamol] | 4370 | – | – | 99.9±2.3 | – | 724 | EC50 [5, 17]: 42.7 nM; EC50 [6, 18]: 3.55 nM; Emax [6]: 102 ± 3.1%
CC(C)NCC(O)c1ccc(O)c(O)c1 (stereo not shown) [Isoprenaline] | – | – | −5.52 | 100 | – | 316 | CRE-SPAP gene transcription response ([5]; tβ4C): 2.47±0.10 fold over basal; EC50 [6]: 26.9 nM; % isop max ([6]; CHO tβ3C cells): 100%
C[C@H](Cc1ccc(OCC(=O)O)cc1)NC[C@H](O)c1cccc(Cl)c1 [BRL37344] | – | −5.19 | −6.45 | 97.1±3.0 | −6.51 | – | Log KD [1, 19]: −5.89±0.10; Log EC50 ([5]; CRE-SPAP production, CHO tβ4C cells): −7.15±0.07; Log EC50 ([6]; CRE-SPAP production, CHO tβ3C cells): −7.67±0.04; % isop max ([6]; CHO tβ3C cells): 88.5±4.2%; Log KD [4, 20]: −6.28±0.06
COc1ccc(CC(C)NCC(O)c2ccc(O)c(NC=O)c2)cc1 (stereo not shown) [Formoterol] | – | – | −5.82 | – | – | 11 | Kd [1]: 20 nM; EC50 [5]: 0.166 nM; EC50 [6]: 0.0447 nM
CC(C)(Cc1ccccc1)NCC(O)c1ccc(O)c(NS(C)(=O)=O)c1 (stereo not shown) [zinterol] | 158 | −5.96 | −6.27 | – | −8.04 | 24 | –
CC(C)(C)NC[C@H](O)COc1cccc2[nH]c(C#N)cc12 [S-Cyanopindolol] | – | – | −8.36 | – | – | 0.00427 | shape of agonist concentration response ([8]; 3H-cAMP accumulation, tβ4C): two component response; % isop max ([8]; tβ4C): 16.4±2.7%; % site 1 [8]: 44.4±2.0%; EC50 [9]: 0.0251 nM; Emax ([9]; read-out: % isop max): 4.6 ± 0.7%; shape of agonist concentration response ([10]; 3H-cAMP accumulation, tβ3C): one-component response; Log EC502 ([10]; 3H-cAMP accumulation, tβ3C, one-component response (same value as EC501)): −10.60±0.13; % site 1 ([10]; % of response occurring via site 1, tβ3C): 100%
CCCCCCNC(=O)Nc1ccc(S(=O)(=O)Nc2ccc(CCNC[C@H](O)COc3ccc(O)cc3)cc2)cc1 [L755507] | – | −6.23 | – | – | −6.83 | – | Log KD [1, 19]: −7.63±0.11; Log KD ([3]; Human β3, binding to site 1): −8.60 ^*; Log KD [4, 20]: −6.56±0.06
OCc1cc(C(O)CNCCCCCCOCCCCc2ccccc2)ccc1O (stereo not shown) [Salmeterol] | – | – | −6.33 | 102.5±2.8 | – | 3.16 | Kd [1]: 81.3 nM; EC50 [5]: 3.98 nM; EC50 [6]: 0.0372 nM; Emax [6]: 96 ± 5.7%
NC[C@H](O)c1ccc(O)c(O)c1 [Noradrenaline] | 501 | −5.74 | −5.53 | 102.3±2.5 | −5.41 | 11500 | EC50 [5, 17]: 81.3 nM; EC50 [6]: 417 nM; Emax [6]: 102 ± 3%
CC(CCc1ccc(O)cc1)NCCc1ccc(O)c(O)c1 (stereo not shown) [Dobutamine] | 1000 | −5.23 | −5.09 | 110.4±2.4 | −5.84 | – | EC50 [5, 17]: 158 nM; EC50 [6, 18]: 427 nM; Emax [6]: 101 ± 3.7%; Kd [4, 16]: 2690 nM
^3H-CGP12177 | – | – | – | – | – | – | Kd ([1]; read-out: KD of 3H-CGP12177, saturation binding, stable CHO tβ4C cell line): 0.58 ± 0.06 nM; specific binding of 3H-CGP12177 [11]: no specific binding; Kd ([4]; read-out: KD of 3H-CGP12177, saturation binding, stable CHO tβ3C cell line): 0.29 ± 0.02 nM
Br.COC(=O)COc1ccc(CC(C)NC[C@H](O)c2cccc(Cl)c2)cc1 (stereo partly shown) [BRL35135A] | – | −6.08 | −6.73 | – | −7.38 | – | Log KD [1, 19]: −6.39±0.03; Log KD [4, 20]: −7.42±0.06
C=C[C@@]1(C)CC(=O)[C@]2(O)[C@@]3(C)[C@@H](O)CCC(C)(C)[C@@H]3[C@H](O)[C@H](OC(C)=O)[C@@]2(C)O1 [forskolin] | – | – | – | – | – | – | 3H-cAMP accumulation response [12]: 21.5±2.2 fold over basal
O=C(O)Cc1ccc(OCCNC[C@H](O)c2ccccc2)cc1 [ZD2079] | > 100000 | −4.21 | −4.59 | – | >−4 | – | Kd [4, 16]: > 100000 nM
CC(CCc1ccc(O)cc1)NCC(O)c1ccc(O)cc1 (stereo not shown) [Ractopamine] | 269 | −6.97 | −5.82 | – | – | 224 | –
COc1ccc(OC)c(C(O)C(C)NC(C)(C)C)c1 (stereo not shown) [Butoxamine] | 12600 | −4.85 | >−4 | – | −6.23 | 1020 | –
CC(C)(C)NCC(O)c1cc(Cl)c(N)c(Cl)c1 (stereo not shown) [Clenbuterol] | – | −6.62 | −5.35 | 97.2±1.9 | −7.90 | 41.7 | Kd [1]: 363 nM; EC50 [5]: 40.7 nM; EC50 [6]: 0.525 nM; Emax [6]: 97.8 ± 4.4%
CC(Cc1ccc(O)cc1)NCC(O)c1cc(O)cc(O)c1 (stereo not shown) [Fenoterol] | – | −5.04 | −5.39 | – | −7.03 | 204 | Kd [1]: 603 nM; EC50 [5]: 8.51 nM; EC50 [6]: 0.832 nM
CC(C)NCC(O)c1cc(O)cc(O)c1 (stereo not shown) [Metaproterenol] | 7410 | −4.71 | −4.06 | – | −5.30 | – | Kd [4, 16]: 4170 nM
CC(C)(C)NCC(O)COc1cccc2[nH]c(=O)[nH]c12 (stereo not shown) [CGP12177] | – | – | – | 53.4±2.2 | – | – | agonist response [13]: no response; % isop max ([8]; tβ4C): 17.4±0.7%; % site 1 [8]: 41.3±7.2%
CC(C)NCC(O)c1ccc(N)c(C#N)c1 (stereo not shown) [Cimaterol] | – | – | −5.28 | 98.2±2.3 | −7.26 | – | Emax [6]: 103 ± 2.2%
C[C@H](Cc1ccc2c(c1)OC(C(=O)[O-])(C(=O)[O-])O2)NC[C@H](O)c1cccc(Cl)c1.[Na+].[Na+] [CL316243] | – | >−3 | −5.11 | – | – | – | Log KD [1, 19]: >−4; Log KD [4, 20]: >−4
CC(C)(Cc1c[nH]c2ccccc12)NCC(O)COc1ccccc1C#N (stereo not shown) [Bucindolol] | 0.389 | −9.31 | −8.04 | – | −9.99 | 0.191 | –
CC(C)NCC(O)c1ccc2ccccc2c1 (stereo not shown) [Pronethalol] | – | −6.44 | −5.89 | – | – | – | Kd [1]: 87.1 nM; Kd [4, 16]: 102 nM

Source: article PMC2994877, “A Full Pharmacological Analysis of the Three Turkey β-Adrenoceptors and Comparison with the Human β-Adrenoceptors” (PLoS ONE, 2010)
